In brackets after ≈: the same amount, converted by molar mass.
What was measured:
[1] = test system: Pseudomonas aeruginosa strain ATCC27853; test: Antibacterial activity evaluation test, MIC by CLSI broth microdilution; format: cell-based; details: cation-adjusted Mueller Hinton medium, 35° C., 16 to 20 hours
Procedure: (§1) The minimum inhibitory concentration (MIC) was measured according to the Clinical and Laboratory Standards Institute (CLSI) standard method by using the following broth microdilution method.
(§2) As bacteria, a Pseudomonas aeruginosa strain ATCC27853, an AmpC-derepressed Pseudomonas aeruginosa mutant strain (S-3028), an IMP-1-containing Pseudomonas aeruginosa strain (S-2838), a VIM-2-containing Pseudomonas aeruginosa strain (S-3779), a GES-19 and GES-20-containing Pseudomonas aeruginosa strain (S-3759), a CTX-M-15-containing Escherichia coli strain (TK-1747), a KPC-2-containing Klebsiella pneumoniae strain (Y-995), an OXA-48-containing Klebsiella pneumoniae strain (Y-1062), and an NDM-1-containing Klebsiella pneumoniae strain (Y-1007) were used. The test bacterial cells that had been cultured overnight on a Mueller Hinton agar medium were scraped off, suspended at a density equivalent to 0.5 McFarland standard, and diluted 10-fold, thereby obtaining an inoculum. A cation-adjusted Mueller Hinton medium containing a test compound was inoculated with 0.005 mL of the inoculum, and the cells were cultured at 35° C. for 16 to 20 hours. The minimum drug concentration at which the growth of bacteria was not visually observed was defined as MIC […].
(§3) An antibacterial activity evaluation test was performed in the same manner as in Test Example 1.

[2] = test system: KPC-2-containing Klebsiella pneumoniae strain (Y-995); test: as above; format: cell-based; details: cation-adjusted Mueller Hinton medium, 35° C., 16 to 20 hours
Procedure: as §1, §2, §3

[3] = test system: GES-19 and GES-20-containing Pseudomonas aeruginosa strain (S-3759); test: as above; format: cell-based; details: cation-adjusted Mueller Hinton medium, 35° C., 16 to 20 hours
Procedure: as §1, §2, §3

[4] = test system: IMP-1-containing Pseudomonas aeruginosa strain (S-2838); test: as above; format: cell-based; details: cation-adjusted Mueller Hinton medium, 35° C., 16 to 20 hours
Procedure: as §1, §2, §3

[5] = test system: AmpC-derepressed Pseudomonas aeruginosa mutant strain (S-3028); test: as above; format: cell-based; details: cation-adjusted Mueller Hinton medium, 35° C., 16 to 20 hours
Procedure: as §1, §2, §3

[6] = test system: NDM-1-containing Klebsiella pneumoniae strain (Y-1007); test: as above; format: cell-based; details: cation-adjusted Mueller Hinton medium, 35° C., 16 to 20 hours
Procedure: as §1, §2, §3

[7] = test system: CTX-M-15-containing Escherichia coli strain (TK-1747); test: as above; format: cell-based; details: cation-adjusted Mueller Hinton medium, 35° C., 16 to 20 hours
Procedure: as §1, §2, §3

[8] = test system: VIM-2-containing Pseudomonas aeruginosa strain (S-3779); test: as above; format: cell-based; details: cation-adjusted Mueller Hinton medium, 35° C., 16 to 20 hours
Procedure: as §1, §2, §3

[9] = test system: OXA-48-containing Klebsiella pneumoniae strain (Y-1062); test: as above; format: cell-based; details: cation-adjusted Mueller Hinton medium, 35° C., 16 to 20 hours
Procedure: as §1, §2, §3

[10] = test system: multidrug-resistant Pseudomonas aeruginosa strain (S-2838 strain); test: Test for protection against systemic infection in mouse with multidrug-resistant Pseudomonas aeruginosa; format: in vivo, ICR male SPF mice; details: sc, 72 h, read-out: survival rate
Procedure: As mice, ICR male SPF mice (4 weeks old: 10 mice per group) were used. Clinically isolated multidrug-resistant Pseudomonas aeruginosa strain (S-2838 strain) cultured overnight on a Mueller-Hinton agar plate at 37° C. was cultured on a cation-adjusted Mueller Hinton medium for 5 hours, and then diluted 20-fold with a 10% mucin/phosphate buffer, thereby preparing an inoculum. An infection was induced by intraperitoneally inoculating the mice with the inoculum at 0.5 mL (about 10^6 CFU/mouse). Each test compound was dissolved in physiological saline, and 1 hour after the infection, the compound was subcutaneously administered once to the mice at 40 mg/kg. The control group was administered with the same amount of physiological saline used as a vehicle. The number of surviving mice was recorded 3 days after the infection.
A test for protection against systemic infection in a mouse with multidrug-resistant Pseudomonas aeruginosa was performed in the same manner as in Test Example 2.

SMILES	responders at 40 mg/kg [10] [%]	also measured
Nc1nc(/C(=N/OC2(C(=O)O)CCC2)C(=O)N[C@@H]2C(=O)N3C[C@@](C(=O)O)(N4CCN(NC(=O)C(=O)c5ccc(O)c(O)c5Cl)C4=O)S[C@H]23)cs1 [Example 19, (3R,5R,6R)-6-((Z)-2-(2-aminothiazol-4-yl)-2-((1-carboxycyclobutoxy)imino)acetamido)-3-(3-(2-(2-chloro-3,4-dihydroxyphenyl)-2-oxoacetamido)-2-oxoimidazolidin-1-yl)-7-oxo-4-thia-1-azabicyclo[3.2.0]heptane-3-carboxylate]		MIC, Pseudomonas aeruginosa ATCC 27853 [1]: 0.25 µg/mL (≈ 0.332 µM); MIC, Klebsiella pneumoniae Y-995 [2]: 0.25 µg/mL (≈ 0.332 µM); MIC, Pseudomonas aeruginosa S3759 [3]: 0.25 µg/mL (≈ 0.332 µM); MIC, Pseudomonas aeruginosa S-2838 [4]: 0.25 µg/mL (≈ 0.332 µM); MIC, Pseudomonas aeruginosa S-3028 [5]: 2 µg/mL (≈ 2.66 µM); MIC, Klebsiella pneumoniae Y-1007 [6]: < 0.06 µg/mL; MIC, Escherichia coli TK-1747 [7]: 0.5 µg/mL (≈ 0.664 µM); MIC, Pseudomonas aeruginosa S-3779 [8]: 0.25 µg/mL (≈ 0.332 µM); MIC, Klebsiella pneumoniae Y-1062 [9]: 0.12 µg/mL (≈ 0.159 µM)
CC(C)(O/N=C(\C(=O)N[C@@H]1C(=O)N2C[C@@](C(=O)O)(N3CCN(NC(=O)C(=O)c4ccc(O)c(O)c4Cl)C3=O)S[C@H]12)c1csc(N)n1)C(=O)O [Example 20, (3R,5R,6R)-6-((Z)-2-(2-aminothiazol-4-yl)-2-(((2-carboxypropan-2-yl)oxy)imino)acetamido)-3-(3-(2-(2-chloro-3,4-dihydroxyphenyl)-2-oxoacetamido)-2-oxoimidazolidin-1-yl)-7-oxo-4-thia-1-azabicyclo[3.2.0]heptane-3-carboxylate]	≥ 90	
Nc1nc(/C(=N/OC2(C(=O)O)CC2)C(=O)N[C@@H]2C(=O)N3C[C@@](C(=O)O)(N4CCN(NC(=O)C(=O)c5ccc(O)c(O)c5Cl)C4=O)S[C@H]23)cs1 [Example 21, (3R,5R,6R)-6-((Z)-2-(2-aminothiazol-4-yl)-2-((1-carboxycyclopropoxy)imino)acetamido)-3-(3-(2-(2-chloro-3,4-dihydroxyphenyl)-2-oxoacetamido)-2-oxoimidazolidin-1-yl)-7-oxo-4-thia-1-azabicyclo[3.2.0]heptane-3-carboxylate]	≥ 90	
CC(C)(O/N=C(\C(=O)N[C@@H]1C(=O)N2C[C@@](C(=O)O)(N3CCN(NC(=O)C(=O)c4ccc(O)c(O)c4Cl)C3=O)S[C@H]12)c1nc(N)sc1Cl)C(=O)O [Example 22, (3R,5R,6R)-6-((Z)-2-(2-amino-5-chlorothiazol-4-yl)-2-(((2-carboxypropan-2-yl)oxy)imino)acetamido)-3-(3-(2(2-chloro-3,4-dihydroxyphenyl)-2-oxoacetamido)-2-oxoimidazolidin-1-yl)-7-oxo-4-thia-1-azabicyclo[3.2.0]heptane-3-carboxylate]	≥ 90	
CC(C)(O/N=C(\C(=O)N[C@@H]1C(=O)N2C[C@@](C(=O)O)(N3CCN(NC(=O)C(=O)c4ccc(O)c(O)c4Cl)C3=O)S[C@H]12)c1nsc(N)n1)C(=O)O [Example 23, (3R,5R,6R)-6-((Z)-2-(5-amino-1,2,4-thiadiazol-3-yl)-2-(((2-carboxypropan-2-yl)oxy)imino)acetamido)-3-(3-(2-(2-chloro-3,4-dihydroxyphenyl)-2-oxoacetamido)-2-oxoimidazolidin-1-yl)-7-oxo-4-thia-1-azabicyclo[3.2.0]heptane-3-carboxylate]	≥ 90	
Nc1nc(/C(=N/OC2(C(=O)O)CC2)C(=O)N[C@@H]2C(=O)N3C[C@@](C(=O)O)(N4CCN(NC(=O)CCNC(=O)C(=O)c5ccc(O)c(O)c5Cl)C4=O)S[C@H]23)cs1 [Example 31, (3R,5R,6R)-6-((Z)-2-(2-aminothiazol-4-yl)-2-((1-carboxycyclopropoxy)imino)acetamido)-3-(3-(3-(2-(2-chloro-3,4-dihydroxyphenyl)-2-oxoacetamido)propanamido)-2-oxoimidazolidin-1-yl)-7-oxo-4-thia-1-azabicyclo[3.2.0]heptane-3-carboxylate]	≥ 90	
CC(C)(O/N=C(\C(=O)N[C@@H]1C(=O)N2C[C@@](C(=O)O)(N3CCN(NC(=O)c4cc(Cl)c(O)c(O)c4Cl)C3=O)S[C@H]12)c1csc(N)n1)C(=O)O [Example 83, (3R,5R,6R)-6-((Z)-2-(2-aminothiazol-4-yl)-2-(((2-carboxypropan-2-yl)oxy)imino)acetamido)-3-(3-(2,5-dichloro-3,4-dihydroxybenzamido)-2-oxoimidazolidin-1-yl)-7-oxo-4-thia-1-azabicyclo[3.2.0]heptane-3-carboxylate]	≥ 90	
CC[C@H](O/N=C(\C(=O)N[C@@H]1C(=O)N2C[C@@](C(=O)O)(N3CCN(NC(=O)C(=O)c4ccc(O)c(O)c4Cl)C3=O)S[C@H]12)c1csc(N)n1)C(=O)O [Example 105, (3R,5R,6R)-6-((Z)-2-(2-aminothiazol-4-yl)-2-(((S)-1-carboxypropoxy)imino)acetamido)-3-(3-(2-(2-chloro-3,4-dihydroxyphenyl)-2-oxoacetamido)-2-oxoimidazolidin-1-yl)-7-oxo-4-thia-1-azabicyclo[3.2.0]heptane-3-carboxylate]	≥ 90	
CC(C)[C@H](O/N=C(\C(=O)N[C@@H]1C(=O)N2C[C@@](C(=O)O)(N3CCN(NC(=O)C(=O)c4ccc(O)c(O)c4Cl)C3=O)S[C@H]12)c1csc(N)n1)C(=O)O [Example 114, (3R,5R,6R)-6-((Z)-2-(2-aminothiazol-4-yl)-2-(((S)-1-carboxy-2-methylpropoxy)imino)acetamido)-3-(3-(2-(2-chloro-3,4-dihydroxyphenyl)-2-oxoacetamido)-2-oxoimidazolidin-1-yl)-7-oxo-4-thia-1-azabicyclo[3.2.0]heptane-3-carboxylate]	≥ 90	
CC(C)(O/N=C(\C(=O)N[C@@H]1C(=O)N2C[C@@](C(=O)O)(N3CCN(NC(=O)/C(=N\O)c4ccc(O)c(O)c4Cl)C3=O)S[C@H]12)c1csc(N)n1)C(=O)O [Example 117, (3R,5R,6R)-6-((Z)-2-(2-aminothiazol-4-yl)-2-(((2-carboxypropan-2-yl)oxy)imino)acetamido)-3-(3-((Z)-2-(2-chloro-3,4-dihydroxyphenyl)-2-(hydroxyimino)acetamido)-2-oxoimidazolidin-1-yl)-7-oxo-4-thia-1-azabicyclo[3.2.0]heptane-3-carboxylate]	≥ 90	
CC(C)(O/N=C(\C(=O)N[C@@H]1C(=O)N2C[C@@](C(=O)O)(N3CCN(NC(=O)CCNC(=O)/C(=N\O)c4ccc(O)c(O)c4Cl)C3=O)S[C@H]12)c1csc(N)n1)C(=O)O [Example 122, (3R,5R,6R)-6-((Z)-2-(2-aminothiazol-4-yl)-2-(((2-carboxypropan-2-yl)oxy)imino)acetamido)-3-(3-(3-((Z)-2-(2-chloro-3,4-dihydroxyphenyl)-2-(hydroxyimino)acetamido)propanamido)-2-oxoimidazolidin-1-yl)-7-oxo-4-thia-1-azabicyclo[3.2.0]heptane-3-carboxylate]	≥ 90	
CC(C)(O/N=C(\C(=O)N[C@@H]1C(=O)N2C[C@@](C(=O)O)(N3CCN(NC(=O)C(=O)c4ccc(O)c(O)c4Cl)C(=O)C3=O)S[C@H]12)c1csc(N)n1)C(=O)O [Example 126, (3R,5R,6R)-6-((Z)-2-(2-aminothiazol-4-yl)-2-(((2-carboxypropan-2-yl)oxy)imino)acetamido)-3-(4-(2-(2-chloro-3,4-dihydroxyphenyl)-2-oxoacetamido)-2,3-dioxopiperazin-1-yl)-7-oxo-4-thia-1-azabicyclo[3.2.0]heptane-3-carboxylate]	≥ 90	
COC[C@@H](NC(=O)C(=O)c1ccc(O)c(O)c1Cl)C(=O)NN1CCN([C@]2(C(=O)O)CN3C(=O)[C@@H](NC(=O)/C(=N\OC(C)(C)C(=O)O)c4csc(N)n4)[C@H]3S2)C1=O [Example 139, (3R,5R,6R)-6-((Z)-2-(2-aminothiazol-4-yl)-2-(((2-carboxypropan-2-yl)oxy)imino)acetamido)-3-(3-((R)-2-(2-(2-chloro-3,4-dihydroxyphenyl)-2-oxoacetamido)-3-methoxypropanamido)-2-oxoimidazolidin-1-yl)-7-oxo-4-thia-1-azabicyclo[3.2.0]heptane-3-carboxylate]	≥ 90	

— patent US12286440B2, “Penam derivative or salt thereof, pharmaceutical composition, and applications thereof” (priority 2018, dated 2025)
